{"source": "paper PMC7136958", "about": "“Targeting the pregnane X receptor using microbial metabolite mimicry” (EMBO Molecular Medicine, 2020)", "key": {"FXR": {"molecular_target": "T1, FXR (Homo sapiens, UniProt Q96RI1)", "T1 construct": "purchased Invitrogen PV4833", "T1 sequence (Q96RI1 211-486 limits assumed)": "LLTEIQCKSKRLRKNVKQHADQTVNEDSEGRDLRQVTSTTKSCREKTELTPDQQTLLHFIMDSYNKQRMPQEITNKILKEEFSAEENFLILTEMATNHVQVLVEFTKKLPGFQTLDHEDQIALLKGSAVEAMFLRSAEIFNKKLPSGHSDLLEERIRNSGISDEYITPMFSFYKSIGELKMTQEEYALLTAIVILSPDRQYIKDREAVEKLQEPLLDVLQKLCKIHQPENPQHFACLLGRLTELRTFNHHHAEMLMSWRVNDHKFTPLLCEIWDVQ", "experiment": "hFXR TR-FRET (LanthaScreen FXR Coactivator Assay)", "type": "biochemical", "settings": "1 nM to 25 µM", "protocol": "volume of 20 µl in 384-well black plates, with concentrations of tested compounds in the range from 1\nnm, on Infinite F200 microplate reader (Tecan Group Ltd, Switzerland).\nAll experiments were done in tetraplicates and as two independent experiments. Final EC50 values were obtained by processing the data with GraphPad Prism 6 using standard curve interpolation (sigmoidal, 4PL, variable slope)."}, "[1]": {"tested_on": "CYP1A1, CYP3A4, MDR1 mRNA in HepaRG cells", "experimental": "Caco‐2 cells were purchased from ATCC, and authenticity was validated by multiplexed STR DNA (short tandem repeat deoxyribonucleic acid) profiling performed by Genetica. […] Cells were maintained at 37°C and 5% CO2 in a humidified incubator. […] Three HepaRG™‐derived cell lines, including 5F Clone control cells, and cells with targeted functional PXR and AhR gene knockouts, PXR‐KO and AhR‐KO, respectively, were purchased from Sigma (Czech Republic). Cells were handled according to the manufacturer's protocol. Human hepatocytes were purchased from Biopredic International (France) and Triangle Research Labs, LLC, Lonza (USA). Cultures were maintained in serum‐free medium at 37°C and 5% CO2 in a humidified incubator.\nThe measurements were performed in triplicate."}, "[2]": {"tested_on": "TLR4, CYP3A4, MDR1 mRNA in Caco-2 cells", "experiment": "RT-qPCR of TLR4, CYP3A4, MDR1 mRNA in PXR-transfected Caco-2 cells", "type": "cell-based, human", "settings": "10 μM", "experimental": "RT–qPCR was performed using Thermo Fisher PowerUp SYBR Green Master Mix (# A25742) and Thermo Fisher qPCR 7900HT. Each sample was repeated in quadruplicate and normalized to internal control, GAPDH. The entire experiment was repeated at least two separate times. The primer sequences are noted in Table 2."}, "NF-κB": {"tested_on": "NF-κB", "experiment": "TNF-α-induced NF-κB reporter assay in LS180 cells with or without PXR co-transfection", "type": "cell-based, human", "experimental": "NF‐κB reporter assays were performed using LS180 cells. […] Thereafter, cells were lysed, and Nano luciferase activity was measured using a Tecan Infinite M200 Pro plate reader (Schoeller Instruments, Czech Republic)."}, "[3]": {"settings": "NFkB transfected LS180 cells, 8th pass, EXP1, 0,1 uM + TNFa 5 ng/ml"}, "[4]": {"settings": "NFkB transfected LS180 cells, 8th pass, EXP1, 1 uM + TNFa 5 ng/ml"}, "[5]": {"settings": "NFkB transfected LS180 cells, 8th pass, EXP1, 10 uM + TNFa 5 ng/ml"}, "[6]": {"settings": "NFkB transfected LS180 cells, 8th pass, EXP1, 25 uM + TNFa 5 ng/ml"}, "[7]": {"settings": "NFkB transfected LS180 cells, 13th pass, EXP2, 0,1 uM + TNFa 5 ng/ml"}, "[8]": {"settings": "NFkB transfected LS180 cells, 13th pass, EXP2, 1 uM + TNFa 5 ng/ml"}, "[9]": {"settings": "NFkB transfected LS180 cells, 13th pass, EXP2, 10 uM + TNFa 5 ng/ml"}, "[10]": {"settings": "NFkB transfected LS180 cells, 13th pass, EXP2, 25 uM + TNFa 5 ng/ml"}, "[11]": {"settings": "NFkB+PXR transfected LS180 cells, 8th pass, EXP1, 0,1 uM + TNFa 5 ng/ml"}, "[12]": {"settings": "NFkB+PXR transfected LS180 cells, 8th pass, EXP1, 1 uM + TNFa 5 ng/ml"}, "[13]": {"settings": "NFkB+PXR transfected LS180 cells, 8th pass, EXP1, 10 uM + TNFa 5 ng/ml"}, "[14]": {"settings": "NFkB+PXR transfected LS180 cells, 8th pass, EXP1, 25 uM + TNFa 5 ng/ml"}, "[15]": {"settings": "NFkB+PXR transfected LS180 cells, 13th pass, EXP2, 0,1 uM + TNFa 5 ng/ml"}}}
{"smiles": "C#CCC(O)(c1ccncc1)c1cc2ccccc2n1S(=O)(=O)c1ccccc1", "note": "(centres unmarked) [FKK6]", "values": [{"measurement": "FXR ligand agonist activity", "setting": "FXR", "value": "did not observe any significant ligand agonist activity"}, {"measurement": "CYP1A1 mRNA induction", "setting": "[1]", "value": "did not induce"}, {"measurement": "MDR-1 mRNA fold to C", "setting": "[1]; HepaRG AHR-KO, normalised to GAPDH, fold vs UT", "value": 1.31, "unit": "fold"}, {"measurement": "CYP1A1 (1A1) mRNA, fold to C", "setting": "[1]; human, 24 h", "value": 8.33, "unit": "fold"}, {"measurement": "CYP3A4 (3A4) mRNA, fold to C", "setting": "[1]; human, 24 h", "value": 2.91, "unit": "fold"}, {"measurement": "CYP3A4 mRNA induction", "setting": "[1]; human, 24 h", "value": "only in HepaRG™ control 5F clone"}, {"measurement": "MDR1 mRNA fold to C", "setting": "[1]; human, 24 h", "value": 1.04, "unit": "fold"}, {"measurement": "MDR-1 mRNA, fold to C", "setting": "[1]; human, 24 h", "value": 0.98, "unit": "fold"}, {"measurement": "CYP3A4 mRNA expression", "setting": "[2]; 24 h", "value": 3.29, "unit": "fold"}, {"measurement": "MDR1 mRNA expression (Fold Change)", "setting": "[2]; 24 h", "value": 6.45, "unit": "fold"}, {"measurement": "TLR4 mRNA expression", "setting": "[2]; 24 h", "value": 0.49, "unit": "fold"}, {"measurement": "CYP3A4 Mean Fold expression", "setting": "[2]; DMSO = 1", "value": 3.29}, {"measurement": "MDR1 Mean Fold expression", "setting": "[2]; DMSO = 1", "value": 6.45}, {"measurement": "hTLR4 Mean Fold expression", "setting": "[2]; DMSO = 1", "value": 0.49}, {"measurement": "TNF-α-induced NF-κB reporter activity", "setting": "NF-κB; 0.1 to 25 μM, PXR-untransfected and PXR-transfected cells", "value": "significantly reduced"}, {"measurement": "NFkB reporter luminescence, aver", "setting": "NF-κB; [3]", "value": 151491.7}, {"measurement": "NFkB reporter, % max", "setting": "NF-κB; [3]", "value": 100.0, "unit": "%"}, {"measurement": "NFkB reporter luminescence, aver", "setting": "NF-κB; [4]", "value": 188054.3}, {"measurement": "NFkB reporter, % max", "setting": "NF-κB; [4]", "value": 124.1, "unit": "%"}, {"measurement": "NFkB reporter luminescence, aver", "setting": "NF-κB; [5]", "value": 206680.7}, {"measurement": "NFkB reporter, % max", "setting": "NF-κB; [5]", "value": 136.4, "unit": "%"}, {"measurement": "NFkB reporter luminescence, aver", "setting": "NF-κB; [6]", "value": 153657.3}, {"measurement": "NFkB reporter, % max", "setting": "NF-κB; [6]", "value": 101.4, "unit": "%"}, {"measurement": "NFkB reporter luminescence, aver", "setting": "NF-κB; [7]", "value": 110498.5}, {"measurement": "NFkB reporter, % max", "setting": "NF-κB; [7]", "value": 100.0, "unit": "%"}, {"measurement": "NFkB reporter luminescence, aver", "setting": "NF-κB; [8]", "value": 114693.5}, {"measurement": "NFkB reporter, % max", "setting": "NF-κB; [8]", "value": 103.8, "unit": "%"}, {"measurement": "NFkB reporter luminescence, aver", "setting": "NF-κB; [9]", "value": 113662.5}, {"measurement": "NFkB reporter, % max", "setting": "NF-κB; [9]", "value": 102.9, "unit": "%"}, {"measurement": "NFkB reporter luminescence, aver", "setting": "NF-κB; [10]", "value": 88975.5}, {"measurement": "NFkB reporter, % max", "setting": "NF-κB; [10]", "value": 80.5, "unit": "%"}, {"measurement": "NFkB reporter luminescence, aver", "setting": "NF-κB; [11]", "value": 128584.0}, {"measurement": "NFkB reporter, % max", "setting": "NF-κB; [11]", "value": 100.0, "unit": "%"}, {"measurement": "NFkB reporter luminescence, aver", "setting": "NF-κB; [12]", "value": 112418.0}, {"measurement": "NFkB reporter, % max", "setting": "NF-κB; [12]", "value": 87.4, "unit": "%"}, {"measurement": "NFkB reporter luminescence, aver", "setting": "NF-κB; [13]", "value": 100484.8}, {"measurement": "NFkB reporter, % max", "setting": "NF-κB; [13]", "value": 78.1, "unit": "%"}, {"measurement": "NFkB reporter luminescence, aver", "setting": "NF-κB; [14]", "value": 94342.8}, {"measurement": "NFkB reporter, % max", "setting": "NF-κB; [14]", "value": 73.4, "unit": "%"}, {"measurement": "NFkB reporter luminescence, aver", "setting": "NF-κB; [15]", "value": 50028.3}, {"measurement": "NFkB reporter, % max", "setting": "NF-κB; [15]", "value": 100.0, "unit": "%"}]}
